“Also recorded” adds a separate entry of the source. Read-outs that look alike come from different tables or passages of the source.
How the values were obtained:
AChE = test system: AChE; parameters: method as in PMID 31891098; settings: chromone-based compound 1, Figure 1; cited from earlier work
MAO-B = settings: cited from earlier work
[1] = test system: scopolamine-induced cognitive deficits; assay: Passive avoidance test, scopolamine-induced cognitive deficits; type: in vivo; settings: scopolamine 1 mg/kg i.p., mice
recombinant human MAO-B = molecular target: T1, recombinant human MAO-B (Homo sapiens, UniProt P27338); assay: biochemical; settings: for inhibition at 10 µM: single dose concentration of 10 µM; for inhibition at 10 µM / IC50: ±sem; for IC50: five doses
T1 construct: purchased Sigma Aldrich
T1 sequence (P27338 1-520): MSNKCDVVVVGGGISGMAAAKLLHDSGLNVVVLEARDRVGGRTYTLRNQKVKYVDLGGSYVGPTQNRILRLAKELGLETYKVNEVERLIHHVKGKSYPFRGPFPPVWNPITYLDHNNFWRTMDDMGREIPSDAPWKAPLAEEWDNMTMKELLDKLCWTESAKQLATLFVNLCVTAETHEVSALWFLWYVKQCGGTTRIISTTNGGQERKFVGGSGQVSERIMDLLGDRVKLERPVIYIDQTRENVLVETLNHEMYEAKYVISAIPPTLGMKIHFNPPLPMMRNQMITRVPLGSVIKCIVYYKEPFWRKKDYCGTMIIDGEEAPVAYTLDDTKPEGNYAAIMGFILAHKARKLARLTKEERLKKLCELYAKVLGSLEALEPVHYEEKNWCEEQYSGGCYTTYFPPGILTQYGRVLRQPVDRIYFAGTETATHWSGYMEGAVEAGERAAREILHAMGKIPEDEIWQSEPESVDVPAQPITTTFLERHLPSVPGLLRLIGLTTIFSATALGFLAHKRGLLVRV

[2] = molecular target: T2, acetylcholinesterase (AChE) (Mus musculus, UniProt P21836); assay: Acetylcholinesterase inhibition assay (Ellman, mouse whole brain homogenate); type: biochemical; settings: for IC50: ±SD
T2 construct: The supernatant obtained was used as a source of enzyme for; from tissue; host or cells: whole brain of male ICR mice, supernatant of the homogenate
T2 sequence (P21836 32-614): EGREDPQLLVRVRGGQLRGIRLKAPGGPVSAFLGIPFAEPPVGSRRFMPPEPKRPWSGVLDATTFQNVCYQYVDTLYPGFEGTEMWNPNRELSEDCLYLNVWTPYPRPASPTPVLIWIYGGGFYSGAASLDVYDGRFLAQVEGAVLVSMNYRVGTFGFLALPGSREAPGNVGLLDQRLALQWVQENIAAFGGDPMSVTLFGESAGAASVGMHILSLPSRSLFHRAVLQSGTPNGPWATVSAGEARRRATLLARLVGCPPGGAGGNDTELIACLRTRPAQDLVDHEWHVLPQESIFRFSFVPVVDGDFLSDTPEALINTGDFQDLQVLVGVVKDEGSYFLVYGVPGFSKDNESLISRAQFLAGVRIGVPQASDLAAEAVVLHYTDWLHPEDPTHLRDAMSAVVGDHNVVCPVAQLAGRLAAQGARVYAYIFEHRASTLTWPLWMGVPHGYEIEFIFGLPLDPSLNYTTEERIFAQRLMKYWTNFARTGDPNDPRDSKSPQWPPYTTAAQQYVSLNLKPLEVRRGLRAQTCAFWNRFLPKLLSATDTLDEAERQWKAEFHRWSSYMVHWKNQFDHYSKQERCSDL
Experimental: (§1) of compounds were determined as the mean ± S.E.M. in triplicate from the dose-response inhibition curves using SigmaPlot® 13.0.
2.2. In vitro acetylcholinesterase inhibition assay
(Eyela, Japan) containing 50 volumes of phosphate buffer (pH 8.0, 0.1 M), and then centrifuged at 14,000 rpm for 20 min at 4 °C. The supernatant obtained was used as a source of enzyme for the assay. Each drug was initially dissolved in dimethyl sulfoxide (DMSO) and diluted to various concentrations immediately before use. An aliquot of diluted drug solution was then mixed wit h 640 μL of phosphate buffer (0.1 M, pH 8.0), 25 μL of buffered Ellman’s reagent (10 mM 5,5′- dithio-bis(2-nitrobenzoic acid) and 15 mM sodium bicarbonate), and the enzyme source (100 μL) and pre-incubated at room temperature for 10 min. Then 5 μL of acetylthiocholine iodide solution (75 mM) was added to this mixture and mixed. Absorbance was measured at 410 nm after 10 min for the reaction adding 5 μL of acetylthiocholine iodide solution (75 mM) and to the reaction mixtures (OPTIZEN 2120UV, Mecasys Co. Ltd, Korea).

[3] = test system: immobility in forced swim test; assay: Forced swim test, acute treatment; settings: 1 and 10 mg/kg p.o.; for Immobility time in forced-swim test: versus control group
[4] = test system: PGE2 production in LPS-induced BV2 cells; assay: Inhibition of LPS-induced production of PGE2 in BV2 cells; type: cell-based, murine; settings: LPS 500 ng/ml
Experimental: indicated concentrations of test compounds for 24 h. After replacing the culture media with fresh
2.3.2. Inhibition of LPS-induced production of PGE2
The concentrations of PGE2 in
Sciences, NY, USA) according to the manufacturer’s instructions. […]

recombinant human MAO-A = molecular target: T3, recombinant human MAO-A (Homo sapiens, UniProt P21397); assay: Monoamine oxidase-A inhibition assay (Amplex red fluorescence); type: biochemical; settings: for inhibition at 1 µM: read-out: % Inhibition MAO-A; for inhibition at 100 µM: read-out: MAO-A % Inhibition
T3 sequence (P21397 1-527): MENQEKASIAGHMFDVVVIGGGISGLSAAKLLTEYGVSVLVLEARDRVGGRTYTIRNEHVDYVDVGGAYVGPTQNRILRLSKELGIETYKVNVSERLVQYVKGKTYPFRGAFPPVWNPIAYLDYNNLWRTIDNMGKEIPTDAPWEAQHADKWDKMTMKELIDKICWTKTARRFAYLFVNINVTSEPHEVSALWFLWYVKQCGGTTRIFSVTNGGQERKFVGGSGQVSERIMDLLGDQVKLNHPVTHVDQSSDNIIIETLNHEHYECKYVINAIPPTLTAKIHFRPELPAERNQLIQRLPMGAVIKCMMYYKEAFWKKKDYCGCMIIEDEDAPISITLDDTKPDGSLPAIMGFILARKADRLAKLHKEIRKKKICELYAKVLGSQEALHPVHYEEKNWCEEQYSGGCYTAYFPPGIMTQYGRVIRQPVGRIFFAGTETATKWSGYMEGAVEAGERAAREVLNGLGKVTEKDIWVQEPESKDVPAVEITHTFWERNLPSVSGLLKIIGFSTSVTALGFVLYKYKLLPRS
Experimental: Two isoforms of MAOs, namely MAO-A and MAO-B, are expressed in CNS, showing different substrate specificity. Consequently, different pharmacological effects can be elicited depending on the inhibited MAO isoform. Therefore, the prepared O^6-aminoalkyl-hispidol analogs were evaluated against both recombinant human MAO-A and MAO-B isoforms following the well-established spectrophotometric method.
2. Biological evaluations
2.1. In vitro assay of human monoamine oxidases inhibition
The MAO activity was quantified by measuring fluorescence intensity evoked by Amplex red reaction in which Amplex red reacts with hydrogen peroxide from the MAO reaction to produce highly fluorescent resorufin. The test compound in DMSO (final concentration: 1 nM – 10 μM or 10 nM – 100 μM ) and hMAO enzyme (Sigma Aldrich, St. Louis, MO, USA) in 50 mM sodium phosphate buffer (pH 7.4, final protein amount: ~1.25 μg of MAO-A/well and 2.5 μg of MAO-B/well) were loaded on 96-well black plate and incubated for 15 min at 37 °C. Then working solution of 200 μM Amplex Red (Cayman, Ann Arbor, MI, USA), 1 U/mL horseradish peroxidase (Sigma-Aldrich) and 1 mM substrate (p-tyramine for MAO-A, benzylamine for MAO-B, Sigma-Aldrich) in 50 mM sodium phosphate buffer (pH 7.4) was added and incubated for 20 min at 37 °C in the dark. The fluorescence was measured using a microplate reader (SpectraMax®i3, Molecular Device, San Jose, CA, USA) with an excitation at 545 nm and an emission at 590 nm. […]
as §1

microglial BV2 cells = assay: BV2 cell viability (WST-1 assay); settings: up to 10 micromolar, in presence of LPS, 24 h
Experimental: 2.3. In vitro cellular evaluations
2.3.1. Cell culture and viability determination
Murine BV2 microglial cells obtained from the Korean Cell Line Bank (Seoul, Republic of Korea) were cultured in DMEM with 10% FBS, 100 U/ml penicillin, and 100 μg/ml streptomycin at 37°C in a humidified 5% CO2 atmosphere. Cell viability and toxicity were determined by the WST-1 assay (Roche, Mannheim, Germany). Briefly, BV2 cells in sterile plates were incubated with the […]

MAO-A = settings: Figure 1, cited from earlier work
[5] = 10 mg/kg p.o., donepezil 5 mg/kg p.o. as comparator

Row | Compound | Latency in the retention experiment, passive avoidance ([1]; 1 mg/kg p.o.) | Latency in the retention experiment, passive avoidance [1, 5] | inhibition at 10 µM (recombinant human MAO-B) [%] | IC50 (recombinant human MAO-B) [nM] | IC50 [2] [nM] | Antidepressant-like effect in forced-swim test [3] | Immobility time in forced-swim test [3] | LPS-induced PGE2 production in BV2 cells ([4]; 10 micromolar dose) | LPS-induced PGE2 production in BV2 cells ([4]; five micromolar concentration) | also measured
1 | O=c1ccoc2ccc(OCCCN3CCCCC3)cc12 [Compound 1] |  |  |  |  |  |  |  |  |  | IC50 (AChE): 5580 nM; IC50 (MAO-B; chromone-based compound 1, Figure 1): 7200 nM
2 | CCN(CC)CCOc1ccc2c(c1)O/C(=C\c1ccccc1OC)C2=O [Compound 3aa] | did not show significant amelioration of cognitive deficits | did not show significant amelioration of cognitive deficits | 91.49 ± 0.27 | 960 ± 4 | 2670 ± 50 | did not show antidepressant-like effects | significantly increased immobility time | returned to almost normal levels | attrition of the inhibitory effect | MAO-B Selectivity Index (recombinant human MAO-B; calculated from MAO-A and MAO-B IC50 values): >104; AChE potency relative to the reference galantamine ([2]; ratio of potency): ~1.8 times; inhibition at 1 µM (recombinant human MAO-A; single dose concentration of 1 µM, ±sem, NI = no measured inhibition): < 0%; inhibition at 100 µM (recombinant human MAO-A; single dose concentration of 100 µM, ±sem): 27.2 ± 2.94%; IC50 (recombinant human MAO-A; ±sem, read-out: MAO-A IC50): > 100000 nM
3 | COc1cc(/C=C2\Oc3cc(OCCN4CCCC4)ccc3C2=O)cc(OC)c1OC [Compound 3bc] | significantly enhanced latency | significantly enhanced latency; also recorded: as effective as donepezil | 99.3 ± 0.38 | 340 ± 2 |  | did not show antidepressant-like effects | significantly increased immobility time | returned to almost normal levels | normal PGE2 production level | Cellular viability of microglial BV2 cells (microglial BV2 cells): absence of cytotoxic activity; IC50 (recombinant human MAO-A): > 100000 nM; inhibition at 1 µM (recombinant human MAO-A): < 0%; inhibition at 100 µM (recombinant human MAO-A): 21.4 ± 3.51%
4 | COc1ccc(/C=C2\Oc3cc(O)ccc3C2=O)c(OC)c1OC [Hispidol Analog] |  |  |  |  |  |  |  |  |  | IC50 (MAO-A; ring-B methoxylated hispidol analog): > 100000 nM; IC50 (MAO-B; ring-B methoxylated hispidol analog, Figure 1): 170 nM
5 | O=C1/C(=C/c2ccc(O)cc2)Oc2cc(O)ccc21 [Hispidol, hispidol] |  |  |  |  | 202000 |  |  |  |  | IC50 (MAO-A; reported value for hispidol): 260 nM; IC50 (MAO-B; reported value for hispidol): 2450 nM

Reference: article PMC10215199 (Antioxidants, 2023)
